In test [1] the target is T1, SARS-CoV-2 PLpro (nsp3 1564–1878) (Severe acute respiratory syndrome coronavirus 2, UniProt P0DTD1). As to the kind of experiment: biochemical. Also noted: FRET-quenched peptide (Pro3) cleavage by PLpro, 10 min pre-incubation, slope over 20 min, normalised to no-compound control. The note with it: low concentration screen, read-out: % of control remaining.
For test [2], the target named is T1, SARS-CoV-2 PLpro (nsp3 1564–1878). In words: biochemical. Also noted: FRET-quenched peptide (Pro3) cleavage by PLpro, 10 min pre-incubation, slope over 20 min, normalised to no-compound control. The conditions noted are these: high concentration screen, read-out: % of control remaining.

In article PMC8286840, “Identifying SARS-CoV-2 antiviral compounds by screening for small molecule inhibitors of Nsp3 papain-like protease” (Biochemical Journal, 2021) one finds remaining activity data, which are given here for 48 compounds.

Each structure is given as a SMILES string. Structures can show the parent of a compound that is named as a salt. Where two headings read alike, the source gives them in different places.

For the compound `CN(C)c1ccc(O)c2c1C[C@H]1C[C@H]3[C@H](N(C)C)C(O)=C(C(N)=O)C(=O)[C@@]3(O)C(O)=C1C2=O`, the remaining activity at 1.25 µM in test [1] (Well no.=3663) is 102%.

As for `CC(N)(C(=O)O)c1ccc(C(=O)O)cc1` (racemic), the remaining activity at 3.75 µM in test [2] (Well no.=880) worked out at 111%.

On to `CC(C)NCC(O)c1ccc(O)c(O)c1` (racemic), for which the remaining activity at 1.25 µM in test [1] (Well no.=1107) came out at 97.8%.

`Oc1cc2c(cc1O)C(c1ccccc1)CNCC2` (racemic): the remaining activity at 3.75 µM in test [2] (Well no.=542) was 98.7%.

Regarding `CN(C)CCC(c1ccc(Cl)cc1)c1ccccn1` (racemic), the remaining activity at 1.25 µM in test [1] (Well no.=124) stood at 92.9%.

For `CN1C[C@@H]2c3ccccc3Oc3ccc(Cl)cc3[C@H]2C1` (racemic) [Asenapine], in test [2] (Well no.=5151), the remaining activity at 3.75 µM stood at 105%.

With `CCC1(c2ccc(N)cc2)CCC(=O)NC1=O` (racemic) [DL-Aminoglutethimide], the remaining activity at 1.25 µM in test [1] (Well no.=2117) was 99.9%.

Take `O=C(CCN1CCN(C(=O)OCc2cc(Cl)cc(Cl)c2)CC1)c1ccc2[nH]c(=O)oc2c1` [3,5-dichlorobenzyl 4-[3-oxo-3-(2-oxo-2,3-dihydro-1,3-benzoxazol-6-yl)propyl]-1-piperazinecarboxylate]: the remaining activity at 3.75 µM in test [2] (Well no.=5605) is 105%.

On to `CC(=O)[C@H]1CC[C@H]2[C@@H]3CC[C@H]4C[C@H](O)CC[C@]4(C)[C@H]3CC[C@]12C` [5alpha-Pregnan-3alpha-ol-20-one], for which, in test [1] (Well no.=1353), the remaining activity at 1.25 µM stood at 104%.

Turning to `Cc1noc(-c2ccc(-c3ccc(CC(=O)O)cc3)cc2)c1NC(=O)O[C@H](C)c1ccccc1` [AM095 (free acid)], in test [2] (Well no.=7853), the remaining activity at 3.75 µM turned out to be 101%.

For `O=c1cc(-c2cccc3c2Sc2ccccc2S3)oc(N2CCOCC2)c1` [ATM Kinase Inhibitor], in test [2] (Well no.=2310), the remaining activity at 3.75 µM turned out to be 104%.

Turning to `CCCC(=O)Nc1ccc(OCC(O)CNC(C)C)c(C(C)=O)c1` (stereo not shown) [Acebutolol HCl], in test [2] (Well no.=5074), the remaining activity at 3.75 µM turned out to be 103%.

For the compound `C=CCc1ccccc1OCC(O)CNC(C)C` (stereo not shown) [Alprenolol.HCl], in test [1] (Well no.=1686), the remaining activity at 1.25 µM was found to be 103%.

Regarding `CC(NC(C)(C)C)C(=O)c1cccc(Cl)c1` (stereo not shown) [Amfebutamone], the remaining activity at 1.25 µM in test [1] (Well no.=1694) turned out to be 98.7%.

As to `CN1[C@@H]2CC[C@H]1C[C@@H](OC(=O)C(CO)c1ccccc1)C2` (stereo partly shown) [Atropine], the remaining activity at 1.25 µM in test [1] (Well no.=1552) is 100%.

Turning to `O=C1CC2(CCCC2)CC(=O)N1CCCCN1CCN(c2ncccn2)CC1` [Buspirone], the remaining activity at 3.75 µM in test [2] (Well no.=2179) is 105%.

`S=C(S)O[C@@H]1C[C@@H]2C[C@@H]1[C@H]1CCC[C@@H]21` [D609]: the remaining activity at 3.75 µM in test [2] (Well no.=4133) was found to be 100%.

As for `CC/C(=C(/CC)c1ccc(O)cc1)c1ccc(O)cc1` [Diethylstilbestrol], in test [2] (Well no.=1982), the remaining activity at 3.75 µM turned out to be 98.4%.

In the case of `Cc1cccc2c3c(ccc12)C1=C(C(=O)C3=O)C(C)CO1` (stereo not shown) [Dihydrotanshinone], the remaining activity at 1.25 µM in test [1] (Well no.=3569) was 102%.

With `COc1ccc([C@@H]2Sc3ccccc3N(CCN(C)C)C(=O)[C@@H]2OC(C)=O)cc1` [Diltiazem hydrochloride], the remaining activity at 3.75 µM in test [2] (Well no.=399) came out at 103%.

Take `O=c1[nH]c2ccccc2n1CCN1CCN(c2cccc(C(F)(F)F)c2)CC1` [Flibanserin]: the remaining activity at 1.25 µM in test [1] (Well no.=6855) was 102%.

As to `Cc1ccc(OC[C@H](O)[C@@H](C)NC(C)C)c2c1CCC2` [ICI 118,551 (hydrochloride)], the remaining activity at 1.25 µM in test [1] (Well no.=7035) came out at 106%.

As to `COc1ccc(Cl)cc1NC(=O)Nc1cc(C)nc2ccccc12` [IGF-1R Inhibitor II], in test [2] (Well no.=2451), the remaining activity at 3.75 µM stood at 104%.

`O=C(c1ccc(Nc2nccc(-c3cc4ccccc4s3)n2)cc1)N1CCC(N2CCCC2)CC1` [IKK Inhibitor VII]: the remaining activity at 1.25 µM in test [1] (Well no.=2439) was 103%.

Consider `CN(C)CCCN1c2ccccc2CCc2ccccc21` [Imipramine.HCl], for which the remaining activity at 3.75 µM in test [2] (Well no.=1688) is 102%.

Regarding `CC(C)[N+]1(C)[C@@H]2CC[C@H]1C[C@@H](OC(=O)C(CO)c1ccccc1)C2` (stereo partly shown) [Ipratropium (bromide)], the remaining activity at 1.25 µM in test [1] (Well no.=6175) came out at 100%.

In the case of `CC(C(=O)O)c1cccc(C(=O)c2ccccc2)c1` (stereo not shown) [Ketoprofen], the figures for the remaining activity at 3.75 µM in test [2] (Well no.=973) and in test [2] (Well no.=1576) were 101% and 98.4%, respectively.

Take `C[N+](C)(C)[C@@H](Cc1c[nH]c(=S)[nH]1)C(=O)[O-]` [L-Ergothioneine]: the remaining activity at 3.75 µM in test [2] (Well no.=3891) worked out at 100%.

On to `CN1[C@@H](CC(=O)c2ccccc2)CCC[C@H]1C[C@H](O)c1ccccc1` [Lobeline], for which, in test [2] (Well no.=1663), the remaining activity at 3.75 µM stood at 103%.

Take `COc1cc(Nc2ncc3c(n2)-c2ccc(Cl)cc2C(c2c(F)cccc2OC)=NC3)ccc1C(=O)O` [MLN8237 (Alisertib)]: the remaining activity at 3.75 µM in test [2] (Well no.=4675) stood at 104%.

On to `CN1C[C@@H](NS(=O)(=O)N(C)C)C[C@@H]2c3cccc4c3c(cn4C)C[C@H]21` [Mesulergine], for which, in test [2] (Well no.=1692), the remaining activity at 3.75 µM came out at 106%.

Turning to `CC(C)(O)c1ccccc1CC[C@@H](SCC1(CC(=O)O)CC1)c1cccc(/C=C/c2ccc3ccc(Cl)cc3n2)c1` [Montelukast], the remaining activity at 3.75 µM in test [2] (Well no.=1615) is 101%.

As for `CN1CCN(C2Cc3ccccc3Sc3ccc(Cl)cc32)CC1` (stereo not shown) [Octoclothepin maleate salt], the remaining activity at 3.75 µM in test [2] (Well no.=5506) is 108%.

On to `CN(C)CC/C=C1/c2ccccc2COc2ccc(CC(=O)O)cc21` [Olopatadine], for which the remaining activity at 3.75 µM in test [2] (Well no.=1786) turned out to be 103%.

For the compound `Cc1nccn1CC1CCc2c(c3ccccc3n2C)C1=O` (stereo not shown) [Ondansetron (hydrochloride dihydrate)], in test [2] (Well no.=7521), the remaining activity at 3.75 µM stood at 105%.

Regarding `Cc1cc(C(C)(C)C)c(O)c(C)c1CC1=NCCN1` [Oxymetazoline.HCl], in test [2] (Well no.=1683), the remaining activity at 3.75 µM is 105%.

As for `CCCCCCCCCCCCCCCC(=O)NCCO` [Palmitoylethanolamide], the remaining activity at 3.75 µM in test [2] (Well no.=900) came out at 106%.

Consider `O=C(Nc1cccc2c(=O)cc(-c3nnn[nH]3)oc12)c1ccc(OCCCCc2ccccc2)cc1` [Pranlukast (hemihydrate)], for which the remaining activity at 3.75 µM in test [2] (Well no.=6603) came out at 102%.

On to `COC(=O)[C@H]1[C@H]2C[C@H]3c4[nH]c5ccccc5c4CCN3C[C@H]2CC[C@@H]1O` [Rauwolscine (hydrochloride)], for which the remaining activity at 3.75 µM in test [2] (Well no.=8155) came to 99.9%.

As to `C1COC(NC(C2CC2)C2CC2)=N1` [Rilmenidine phosphate], the remaining activity at 3.75 µM in test [2] (Well no.=1695) is 106%.

With `CNCC[C@H](Oc1ccc(C(F)(F)F)cc1)c1ccccc1` [S-(+)-Fluoxetine hydrochloride], the remaining activity at 3.75 µM in test [2] (Well no.=753) is 99.7%.

Regarding `Oc1cc2c(cc1O)C(c1ccccc1)CNCC2` (stereo not shown) [SKF 38393 (hydrochloride)], the remaining activity at 3.75 µM in test [2] (Well no.=7231) worked out at 97.8%.

On to `O=C(CCCN1CCC2(CC1)C(=O)NCN2c1ccccc1)c1ccc(F)cc1` [Spiperone.HCl], for which the remaining activity at 3.75 µM in test [2] (Well no.=1648) turned out to be 106%.

For `Cc1ccc(C(=O)Nc2ccc(S(=O)(=O)O)c3cc(S(=O)(=O)O)cc(S(=O)(=O)O)c23)cc1NC(=O)c1cccc(NC(=O)Nc2cccc(C(=O)Nc3cc(C(=O)Nc4ccc(S(=O)(=O)O)c5cc(S(=O)(=O)O)cc(S(=O)(=O)O)c45)ccc3C)c2)c1` [Suramin hexasodium], in test [2] (Well no.=1469), the remaining activity at 3.75 µM is 102%.

Regarding `Nc1c2c(nc3ccccc13)CCCC2` [Tacrine], in test [2] (Well no.=1675), the remaining activity at 3.75 µM stood at 105%.

As for `CN(C)CCCN1c2ccccc2Sc2ccc(C(F)(F)F)cc21` [Triflupromazine hydrochloride], the remaining activity at 3.75 µM in test [2] (Well no.=1285) came to 105%.

As to `CCC(COC(=O)c1cc(OC)c(OC)c(OC)c1)(c1ccccc1)N(C)C` (stereo not shown) [Trimebutine (maleate)], the remaining activity at 3.75 µM in test [2] (Well no.=6655) is 107%.

For the compound `Cc1cccc(C)c1NC1=NCCCS1` [Xylazine hydrochloride], in test [2] (Well no.=1388), the remaining activity at 3.75 µM worked out at 98.8%.
